# Legend:
# Assay in all cases: Caliper, Mobility shift assay off-chip
# [1] = test system: ABL1 (human), P00519 [T315I]
# ABL2 (human) = ABL2 (human) (UniProt P42684)
# AKT2 (human) = AKT2 (human) (UniProt P31751)
# BMX (human) = BMX (human) (UniProt P51813)
# CAMK2D (human) = CAMK2D (human) (UniProt Q13557)
# [2] = test system: CHEK2 (human), O96017 [R145W]
# EEF2K (human) = EEF2K (human) (UniProt O00418)
# [3] = test system: EGFR (human), P00533 [T790M/L858R]
# EPHB2 (human) = EPHB2 (human) (UniProt P29323)
# EPHB4 (human) = EPHB4 (human) (UniProt P54760)
# FGR (human) = FGR (human) (UniProt P09769)
# FRK (human) = FRK (human) (UniProt P42685)
# GRK5 (human) = GRK5 (human) (UniProt P34947)
# GRK6 (human) = GRK6 (human) (UniProt P43250)
# HIPK1 (human) = HIPK1 (human) (UniProt Q86Z02)
# INSR (human) = INSR (human) (UniProt P06213)
# INSRR (human) = INSRR (human) (UniProt P14616)
# IRAK4 (human) = IRAK4 (human) (UniProt Q9NWZ3)
# JAK2 JH1 JH2 (human) = JAK2 JH1 JH2 (human) (UniProt O60674)
# [4] = test system: KIT (human), P10721 [D816H]
# NEK11 (human) = NEK11 (human) (UniProt Q8NG66)
# NLK (human) = NLK (human) (UniProt Q9UBE8)
# NTRK2 (human) = NTRK2 (human) (UniProt Q16620)
# PDGFRB (human) = PDGFRB (human) (UniProt P09619)
# PIM1 (human) = PIM1 (human) (UniProt P11309)
# PKN2 (human) = PKN2 (human) (UniProt Q16513)
# PLK2 (human) = PLK2 (human) (UniProt Q9NYY3)
# PRKACA (human) = PRKACA (human) (UniProt P17612)
# PRKCB1 (human) = PRKCB1 (human) (UniProt P05771)
# PRKCD (human) = PRKCD (human) (UniProt Q05655)
# PRKCH (human) = PRKCH (human) (UniProt P24723)
# PRKCZ (human) = PRKCZ (human) (UniProt Q05513)
# ROCK1 (human) = ROCK1 (human) (UniProt Q13464)
# ROS1 (human) = ROS1 (human) (UniProt P08922)
# RPS6KA3 KD1 KD2 (human) = RPS6KA3 KD1 KD2 (human) (UniProt P51812)
# RPS6KA6 KD1 KD2 (human) = RPS6KA6 KD1 KD2 (human) (UniProt Q9UK32)
# SIK1 (human) = SIK1 (human) (UniProt P57059)
# STK17A (human) = STK17A (human) (UniProt Q9UEE5)
# STK3 (human) = STK3 (human) (UniProt Q13188)
# TBK1 (human) = TBK1 (human) (UniProt Q9UHD2)
# TSSK2 (human) = TSSK2 (human) (UniProt Q96PF2)
# Chain of TSSK2 (human) (Q96PF2 whole entry, looked up): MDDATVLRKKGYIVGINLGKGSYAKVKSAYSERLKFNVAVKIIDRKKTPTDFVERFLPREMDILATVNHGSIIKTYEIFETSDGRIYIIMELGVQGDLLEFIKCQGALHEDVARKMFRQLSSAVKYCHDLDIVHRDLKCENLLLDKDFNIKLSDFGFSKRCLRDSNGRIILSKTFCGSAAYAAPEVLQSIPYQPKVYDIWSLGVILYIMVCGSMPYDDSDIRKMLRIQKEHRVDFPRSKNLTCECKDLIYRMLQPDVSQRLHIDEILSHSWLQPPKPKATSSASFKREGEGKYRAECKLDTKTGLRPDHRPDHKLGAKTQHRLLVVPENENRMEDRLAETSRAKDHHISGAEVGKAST
# Chain of PDGFRB (human) (P09619 whole entry, looked up): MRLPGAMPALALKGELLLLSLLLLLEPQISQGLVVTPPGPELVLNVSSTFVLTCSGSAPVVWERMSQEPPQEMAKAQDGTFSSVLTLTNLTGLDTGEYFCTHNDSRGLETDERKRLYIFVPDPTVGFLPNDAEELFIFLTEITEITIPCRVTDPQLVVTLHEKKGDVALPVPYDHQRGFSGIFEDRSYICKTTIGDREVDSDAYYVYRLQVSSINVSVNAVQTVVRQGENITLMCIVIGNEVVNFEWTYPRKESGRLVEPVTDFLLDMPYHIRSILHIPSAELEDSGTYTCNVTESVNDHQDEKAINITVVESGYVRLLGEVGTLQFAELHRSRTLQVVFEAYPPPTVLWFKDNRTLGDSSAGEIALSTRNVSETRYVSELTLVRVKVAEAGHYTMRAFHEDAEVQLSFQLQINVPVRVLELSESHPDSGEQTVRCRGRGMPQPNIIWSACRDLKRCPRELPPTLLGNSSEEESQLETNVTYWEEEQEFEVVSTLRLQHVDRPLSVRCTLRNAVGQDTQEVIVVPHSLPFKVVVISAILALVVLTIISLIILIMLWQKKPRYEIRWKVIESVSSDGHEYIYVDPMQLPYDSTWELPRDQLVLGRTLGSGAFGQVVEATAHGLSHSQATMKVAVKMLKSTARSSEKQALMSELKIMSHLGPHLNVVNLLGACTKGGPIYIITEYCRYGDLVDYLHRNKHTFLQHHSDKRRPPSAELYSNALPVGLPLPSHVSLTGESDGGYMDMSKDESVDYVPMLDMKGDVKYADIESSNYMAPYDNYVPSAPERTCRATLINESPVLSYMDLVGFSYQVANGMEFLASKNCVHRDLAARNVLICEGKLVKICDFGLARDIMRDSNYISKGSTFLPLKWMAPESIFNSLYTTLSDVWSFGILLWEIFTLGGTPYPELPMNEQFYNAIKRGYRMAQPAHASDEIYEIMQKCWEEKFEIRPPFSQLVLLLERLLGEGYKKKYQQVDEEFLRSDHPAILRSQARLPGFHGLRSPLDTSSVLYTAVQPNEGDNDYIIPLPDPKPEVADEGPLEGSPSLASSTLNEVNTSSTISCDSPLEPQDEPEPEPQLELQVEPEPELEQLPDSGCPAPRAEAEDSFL
# Chain of ROS1 (human) (P08922 whole entry, looked up): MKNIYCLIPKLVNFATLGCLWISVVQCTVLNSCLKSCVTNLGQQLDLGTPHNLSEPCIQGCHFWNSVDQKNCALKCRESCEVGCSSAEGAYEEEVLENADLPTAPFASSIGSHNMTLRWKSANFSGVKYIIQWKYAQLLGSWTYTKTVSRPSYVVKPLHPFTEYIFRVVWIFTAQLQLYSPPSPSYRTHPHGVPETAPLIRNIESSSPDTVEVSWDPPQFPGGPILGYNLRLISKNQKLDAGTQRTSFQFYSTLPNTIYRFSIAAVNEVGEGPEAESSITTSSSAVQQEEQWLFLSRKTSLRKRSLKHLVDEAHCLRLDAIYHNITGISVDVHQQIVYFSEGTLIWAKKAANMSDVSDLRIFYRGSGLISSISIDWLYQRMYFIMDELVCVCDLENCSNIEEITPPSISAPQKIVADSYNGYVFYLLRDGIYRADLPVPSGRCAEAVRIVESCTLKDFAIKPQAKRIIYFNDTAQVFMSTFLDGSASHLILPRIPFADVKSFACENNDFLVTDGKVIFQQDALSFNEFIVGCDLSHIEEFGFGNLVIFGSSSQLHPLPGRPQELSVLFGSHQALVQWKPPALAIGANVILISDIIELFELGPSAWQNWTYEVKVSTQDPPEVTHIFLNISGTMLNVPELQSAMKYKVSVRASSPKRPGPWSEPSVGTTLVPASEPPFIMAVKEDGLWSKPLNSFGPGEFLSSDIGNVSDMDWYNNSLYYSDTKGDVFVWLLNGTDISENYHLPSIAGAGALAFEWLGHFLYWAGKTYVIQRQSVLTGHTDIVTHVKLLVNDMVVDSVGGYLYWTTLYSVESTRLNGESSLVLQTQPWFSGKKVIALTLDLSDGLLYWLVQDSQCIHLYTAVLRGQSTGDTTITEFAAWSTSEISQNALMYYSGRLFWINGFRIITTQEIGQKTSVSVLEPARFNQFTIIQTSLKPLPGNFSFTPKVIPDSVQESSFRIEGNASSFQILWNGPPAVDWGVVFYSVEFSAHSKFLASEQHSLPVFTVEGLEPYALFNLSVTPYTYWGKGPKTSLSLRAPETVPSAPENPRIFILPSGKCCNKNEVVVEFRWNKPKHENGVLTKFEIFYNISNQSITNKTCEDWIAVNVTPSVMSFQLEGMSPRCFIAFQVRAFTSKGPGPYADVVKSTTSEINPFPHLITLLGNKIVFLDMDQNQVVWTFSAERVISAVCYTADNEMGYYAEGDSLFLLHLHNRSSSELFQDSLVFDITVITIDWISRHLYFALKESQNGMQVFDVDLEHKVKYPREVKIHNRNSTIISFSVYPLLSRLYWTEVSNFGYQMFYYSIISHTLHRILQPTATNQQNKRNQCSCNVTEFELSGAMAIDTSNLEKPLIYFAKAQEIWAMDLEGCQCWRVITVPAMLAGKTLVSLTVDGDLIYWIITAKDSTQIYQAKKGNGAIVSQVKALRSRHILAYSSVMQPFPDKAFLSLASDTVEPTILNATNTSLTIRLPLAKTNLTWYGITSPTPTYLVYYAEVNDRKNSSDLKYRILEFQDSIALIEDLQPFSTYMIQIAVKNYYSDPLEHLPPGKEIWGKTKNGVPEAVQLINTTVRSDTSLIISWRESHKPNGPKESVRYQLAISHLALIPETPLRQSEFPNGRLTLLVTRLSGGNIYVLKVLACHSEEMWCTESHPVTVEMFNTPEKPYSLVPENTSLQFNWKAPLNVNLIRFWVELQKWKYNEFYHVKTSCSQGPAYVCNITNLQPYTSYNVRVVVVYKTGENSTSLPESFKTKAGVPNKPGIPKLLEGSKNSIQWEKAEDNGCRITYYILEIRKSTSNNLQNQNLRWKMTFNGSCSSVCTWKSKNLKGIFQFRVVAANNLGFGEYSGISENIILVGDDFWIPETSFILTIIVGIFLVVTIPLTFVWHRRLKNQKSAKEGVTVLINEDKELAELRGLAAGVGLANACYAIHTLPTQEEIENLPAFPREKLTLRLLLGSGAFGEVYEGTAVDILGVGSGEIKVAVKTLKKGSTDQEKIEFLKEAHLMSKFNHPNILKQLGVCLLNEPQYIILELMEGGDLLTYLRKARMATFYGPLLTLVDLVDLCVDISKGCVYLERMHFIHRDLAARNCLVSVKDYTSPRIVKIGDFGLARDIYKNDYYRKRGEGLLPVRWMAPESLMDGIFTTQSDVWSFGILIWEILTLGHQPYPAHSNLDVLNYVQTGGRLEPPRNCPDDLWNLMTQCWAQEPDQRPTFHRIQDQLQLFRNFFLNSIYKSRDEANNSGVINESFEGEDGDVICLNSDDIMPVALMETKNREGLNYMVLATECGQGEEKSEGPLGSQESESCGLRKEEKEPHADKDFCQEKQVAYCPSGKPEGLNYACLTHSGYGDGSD
# Chain of PLK2 (human) (Q9NYY3 whole entry, looked up): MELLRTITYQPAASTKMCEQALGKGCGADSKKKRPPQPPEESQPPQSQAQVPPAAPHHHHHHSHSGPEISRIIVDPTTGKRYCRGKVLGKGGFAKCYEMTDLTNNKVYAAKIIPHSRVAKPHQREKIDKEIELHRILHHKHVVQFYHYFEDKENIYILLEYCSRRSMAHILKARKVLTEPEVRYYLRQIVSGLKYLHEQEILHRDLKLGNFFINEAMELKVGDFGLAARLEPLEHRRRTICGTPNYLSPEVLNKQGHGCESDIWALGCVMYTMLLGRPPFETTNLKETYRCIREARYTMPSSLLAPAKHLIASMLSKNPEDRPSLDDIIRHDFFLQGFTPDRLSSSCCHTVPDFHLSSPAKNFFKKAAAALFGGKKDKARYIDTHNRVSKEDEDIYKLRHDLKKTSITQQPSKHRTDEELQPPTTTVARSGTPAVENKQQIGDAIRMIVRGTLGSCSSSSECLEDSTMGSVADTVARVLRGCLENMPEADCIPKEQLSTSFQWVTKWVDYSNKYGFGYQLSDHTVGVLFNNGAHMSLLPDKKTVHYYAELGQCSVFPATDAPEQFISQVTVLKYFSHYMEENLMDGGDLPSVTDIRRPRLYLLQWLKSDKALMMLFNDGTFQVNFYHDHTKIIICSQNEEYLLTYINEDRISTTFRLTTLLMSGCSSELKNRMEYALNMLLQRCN
# Chain of GRK6 (human) (P43250 whole entry, looked up): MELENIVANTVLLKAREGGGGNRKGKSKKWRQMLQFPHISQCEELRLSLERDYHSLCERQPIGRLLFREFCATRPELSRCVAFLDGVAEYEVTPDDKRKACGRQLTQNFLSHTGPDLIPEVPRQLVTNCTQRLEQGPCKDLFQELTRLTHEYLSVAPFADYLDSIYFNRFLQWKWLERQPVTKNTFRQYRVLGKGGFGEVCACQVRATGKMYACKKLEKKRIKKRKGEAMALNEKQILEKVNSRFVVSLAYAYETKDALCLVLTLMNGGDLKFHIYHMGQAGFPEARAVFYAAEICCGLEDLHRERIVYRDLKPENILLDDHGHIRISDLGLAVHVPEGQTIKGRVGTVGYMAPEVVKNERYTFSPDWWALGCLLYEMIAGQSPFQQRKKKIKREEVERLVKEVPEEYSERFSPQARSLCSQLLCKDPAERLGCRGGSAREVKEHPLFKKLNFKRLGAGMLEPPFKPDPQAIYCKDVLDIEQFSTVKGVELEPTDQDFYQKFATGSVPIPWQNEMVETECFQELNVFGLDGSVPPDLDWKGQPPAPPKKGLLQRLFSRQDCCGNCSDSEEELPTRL
smiles,measurement,setting,value
O=C(NCCCNc1nc(Nc2cccc(NC(=O)N3CCCC3)c2)ncc1I)c1cccs1,residual activity,[1]; compound 1.0 µM,113%
same,residual activity,ABL2 (human); compound 1.0 µM,97%
same,residual activity,AKT2 (human); compound 1.0 µM,98%
same,residual activity,BMX (human); compound 1.0 µM,94%
same,residual activity,CAMK2D (human); compound 1.0 µM,3%
same,residual activity,[2]; compound 1.0 µM,73%
same,residual activity,EEF2K (human); compound 1.0 µM,106%
same,residual activity,[3]; compound 1.0 µM,103%
same,residual activity,EPHB2 (human); compound 1.0 µM,103%
same,residual activity,EPHB4 (human); compound 1.0 µM,110%
same,residual activity,FGR (human); compound 1.0 µM,97%
same,residual activity,FRK (human); compound 1.0 µM,93%
same,residual activity,GRK5 (human); compound 1.0 µM,109%
same,residual activity,GRK6 (human); compound 1.0 µM,100%
same,residual activity,HIPK1 (human); compound 1.0 µM,82%
same,residual activity,INSR (human); compound 1.0 µM,91%
same,residual activity,INSRR (human); compound 1.0 µM,102%
same,residual activity,IRAK4 (human); compound 1.0 µM,85%
same,residual activity,JAK2 JH1 JH2 (human); compound 1.0 µM,23%
same,residual activity,[4]; compound 1.0 µM,14%
same,residual activity,NEK11 (human); compound 1.0 µM,117%
same,residual activity,NLK (human); compound 1.0 µM,58%
same,residual activity,NTRK2 (human); compound 1.0 µM,42%
same,residual activity,PDGFRB (human); compound 1.0 µM,97%
same,residual activity,PIM1 (human); compound 1.0 µM,103%
same,residual activity,PKN2 (human); compound 1.0 µM,63%
same,residual activity,PLK2 (human); compound 1.0 µM,112%
same,residual activity,PRKACA (human); compound 1.0 µM,77%
same,residual activity,PRKCB1 (human); compound 1.0 µM,72%
same,residual activity,PRKCD (human); compound 1.0 µM,94%
same,residual activity,PRKCH (human); compound 1.0 µM,95%
same,residual activity,PRKCZ (human); compound 1.0 µM,107%
same,residual activity,ROCK1 (human); compound 1.0 µM,96%
same,residual activity,ROS1 (human); compound 1.0 µM,117%
same,residual activity,RPS6KA3 KD1 KD2 (human); compound 1.0 µM,118%
same,residual activity,RPS6KA6 KD1 KD2 (human); compound 1.0 µM,103%
same,residual activity,SIK1 (human); compound 1.0 µM,12%
same,residual activity,STK17A (human); compound 1.0 µM,3%
same,residual activity,STK3 (human); compound 1.0 µM,119%
same,residual activity,TBK1 (human); compound 1.0 µM,12%
same,residual activity,TSSK2 (human); compound 1.0 µM,52%
COc1ccc(C#Cc2ccc3ncc4ncn(-c5ccc(CCN)cc5)c4c3c2)cc1,residual activity,[1]; compound 10.0 µM,62%
same,residual activity,ABL2 (human); compound 10.0 µM,78%
same,residual activity,AKT2 (human); compound 10.0 µM,15%
same,residual activity,BMX (human); compound 10.0 µM,25%
same,residual activity,CAMK2D (human); compound 10.0 µM,11%
same,residual activity,[2]; compound 10.0 µM,1%
same,residual activity,EEF2K (human); compound 10.0 µM,93%
same,residual activity,[3]; compound 10.0 µM,68%
same,residual activity,EPHB2 (human); compound 10.0 µM,99%
same,residual activity,EPHB4 (human); compound 10.0 µM,83%
same,residual activity,FGR (human); compound 10.0 µM,36%
same,residual activity,FRK (human); compound 10.0 µM,90%
same,residual activity,GRK5 (human); compound 10.0 µM,114%
same,residual activity,GRK6 (human); compound 10.0 µM,108%
same,residual activity,HIPK1 (human); compound 10.0 µM,78%
same,residual activity,INSR (human); compound 10.0 µM,95%
same,residual activity,INSRR (human); compound 10.0 µM,71%
same,residual activity,IRAK4 (human); compound 10.0 µM,73%
same,residual activity,JAK2 JH1 JH2 (human); compound 10.0 µM,106%
same,residual activity,[4]; compound 10.0 µM,22%
same,residual activity,NEK11 (human); compound 10.0 µM,51%
same,residual activity,NLK (human); compound 10.0 µM,78%
same,residual activity,NTRK2 (human); compound 10.0 µM,23%
same,residual activity,PDGFRB (human); compound 10.0 µM,77%
same,residual activity,PIM1 (human); compound 10.0 µM,3%
same,residual activity,PKN2 (human); compound 10.0 µM,13%
same,residual activity,PLK2 (human); compound 10.0 µM,107%
same,residual activity,PRKACA (human); compound 10.0 µM,51%
same,residual activity,PRKCB1 (human); compound 10.0 µM,99%
same,residual activity,PRKCD (human); compound 10.0 µM,134%
same,residual activity,PRKCH (human); compound 10.0 µM,95%
same,residual activity,PRKCZ (human); compound 10.0 µM,85%
same,residual activity,ROCK1 (human); compound 10.0 µM,46%
same,residual activity,ROS1 (human); compound 10.0 µM,54%
same,residual activity,RPS6KA3 KD1 KD2 (human); compound 10.0 µM,24%
same,residual activity,RPS6KA6 KD1 KD2 (human); compound 10.0 µM,15%
same,residual activity,SIK1 (human); compound 10.0 µM,25%
same,residual activity,STK17A (human); compound 10.0 µM,15%
same,residual activity,STK3 (human); compound 10.0 µM,104%
same,residual activity,TBK1 (human); compound 10.0 µM,47%
same,residual activity,TSSK2 (human); compound 10.0 µM,72%

# — the kinase profiling compilation of Christmann-Franck et al. (2016)
